Experimental data as given in PMC7170383 (Pharmaceutical Biology, 2020).

How the values were obtained:
[1] = target: T1, CYP3A4 (Homo sapiens, UniProt P08684); experiment: CYP3A4 inhibition in pooled human liver microsomes (testosterone 6β-hydroxylation); type: in vitro ADME
T1 construct: CYP3A4 catalysed reactions (testosterone 6β-hydroxylation) in pooled HLM; from tissue; host or cells: pooled human liver microsomes
Method: All incubations were performed in triplicate, and the mean values were utilized.
The reaction was terminated by adding a 100 μL acetonitrile (10% trichloroacetic acid for CYP2A6) internal standard mix, and the solution was placed on ice. The mixture was centrifuged at 12,000 rpm for 10 min, and an aliquot (50 μL) of supernatant was transferred for HPLC analysis.
The enzyme kinetic parameters for the probe reaction were estimated from the best fit line, using least-squares linear regression of the inverse substrate concentration versus the inverse velocity (Lineweaver-Burk plots), and the mean values were used to calculate Vmax and Km. […] The mechanism of the inhibition was inspected using the Lineweaver–Burk plots and the enzyme inhibition models.

[2] = target: T2, CYP2E1 (Homo sapiens, UniProt P05181); experiment: CYP2E1 inhibition in pooled human liver microsomes (chlorzoxazone 6-hydroxylation); type: in vitro ADME
T2 construct: CYP2E1 catalysed reactions (chlorzoxazone 6-hydroxylation) in pooled HLM; from tissue; host or cells: pooled human liver microsomes
T2 sequence (P05181 whole entry): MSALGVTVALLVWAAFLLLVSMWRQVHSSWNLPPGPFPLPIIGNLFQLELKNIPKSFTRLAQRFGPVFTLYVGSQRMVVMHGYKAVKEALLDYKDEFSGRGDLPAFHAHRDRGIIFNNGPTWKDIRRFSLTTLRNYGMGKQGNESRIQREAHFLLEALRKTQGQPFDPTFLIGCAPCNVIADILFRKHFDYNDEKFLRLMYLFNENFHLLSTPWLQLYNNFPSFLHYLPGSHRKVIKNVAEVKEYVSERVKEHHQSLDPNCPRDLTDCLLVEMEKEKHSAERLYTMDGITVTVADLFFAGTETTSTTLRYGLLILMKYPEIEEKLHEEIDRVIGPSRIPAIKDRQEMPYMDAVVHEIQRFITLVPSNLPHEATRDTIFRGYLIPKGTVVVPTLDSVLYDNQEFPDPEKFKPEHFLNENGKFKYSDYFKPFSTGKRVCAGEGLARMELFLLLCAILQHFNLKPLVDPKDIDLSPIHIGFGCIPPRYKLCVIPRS
Method: (§1) Marker reactions of eight CYP isoforms were examined, and apparent Km values were estimated to characterize the pooled HLMs. All incubations were performed in triplicate, and the mean values were utilized. The typical incubation systems contained 100 mM potassium phosphate buffer (pH 7.4), NADPH generating system (1 mM NADP^+, 10 mM glucose-6-phosphate, 1 U/mL of glucose-6-phosphate dehydrogenase and 4 mM MgCl2), the appropriate concentration of HLMs, a corresponding probe substrate and hispidulin (or positive inhibitor for different probe reactions) in a final volume of 200 μL.
(§2) There was a 3-min preincubation period (at 37 °C) before the reaction was initiated by adding an NADPH-generating system. The reaction was terminated by adding a 100 μL acetonitrile (10% trichloroacetic acid for CYP2A6) internal standard mix, and the solution was placed on ice. The mixture was centrifuged at 12,000 rpm for 10 min, and an aliquot (50 μL) of supernatant was transferred for HPLC analysis. The instrument used in this study was Agilent 1260 series instrument with DAD and FLD detector, and the quantitative assay for the corresponding metabolites was performed as previously reported (Lang et al. [2016]; Zhang et al. [2017]). The quantitative analysis of metabolites can represent the activity of corresponding CYPs.
(§3) The enzyme kinetic parameters for the probe reaction were estimated from the best fit line, using least-squares linear regression of the inverse substrate concentration versus the inverse velocity (Lineweaver-Burk plots), and the mean values were used to calculate Vmax and Km. Inhibition data from the experiments that were conducted using multiple compound concentrations were represented by Dixon plots, and inhibition constant (Ki) values were calculated using non-linear regression according to the following equation: v=(VmaxS/Km(1+I/Ki)+S) where I is the concentration of the compound, Ki is the inhibition constant, S is the concentration of the substrate, and Km is the substrate concentration at half the maximum velocity (Vmax) of the reaction. The mechanism of the inhibition was inspected using the Lineweaver–Burk plots and the enzyme inhibition models. The data comparison was performed using Student’s t-test and performed using IBM SPSS statistics version 20 (IBM SPSS Inc., Armonk, NY).

[3] = target: T3, CYP2C9 (Homo sapiens, UniProt P11712); experiment: CYP2C9 inhibition in pooled human liver microsomes (diclofenac 4′-hydroxylation); type: in vitro ADME
T3 construct: from tissue; host or cells: pooled human liver microsomes
T3 sequence (P11712 whole entry): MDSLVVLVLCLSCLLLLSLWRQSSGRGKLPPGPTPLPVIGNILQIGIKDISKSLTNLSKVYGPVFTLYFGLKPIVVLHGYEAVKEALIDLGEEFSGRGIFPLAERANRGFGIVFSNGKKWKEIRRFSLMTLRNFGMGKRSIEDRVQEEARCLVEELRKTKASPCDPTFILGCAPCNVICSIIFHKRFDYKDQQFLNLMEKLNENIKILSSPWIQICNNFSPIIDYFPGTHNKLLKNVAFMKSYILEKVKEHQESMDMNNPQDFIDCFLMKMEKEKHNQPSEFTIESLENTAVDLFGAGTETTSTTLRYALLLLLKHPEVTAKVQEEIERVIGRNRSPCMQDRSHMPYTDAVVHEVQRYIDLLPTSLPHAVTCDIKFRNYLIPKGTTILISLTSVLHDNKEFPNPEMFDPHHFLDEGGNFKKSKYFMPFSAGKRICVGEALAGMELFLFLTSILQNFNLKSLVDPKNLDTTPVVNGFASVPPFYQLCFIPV
Method: as §1, §2, §3

[4] = target: T4, CYP1A2 (Homo sapiens, UniProt P05177); experiment: CYP1A2 inhibition in pooled human liver microsomes (phenacetin O-deethylation); type: in vitro ADME; conditions: CEP 100 μM, pooled HLMs
T4 construct: from tissue; host or cells: pooled human liver microsomes
T4 sequence (P05177 1-516): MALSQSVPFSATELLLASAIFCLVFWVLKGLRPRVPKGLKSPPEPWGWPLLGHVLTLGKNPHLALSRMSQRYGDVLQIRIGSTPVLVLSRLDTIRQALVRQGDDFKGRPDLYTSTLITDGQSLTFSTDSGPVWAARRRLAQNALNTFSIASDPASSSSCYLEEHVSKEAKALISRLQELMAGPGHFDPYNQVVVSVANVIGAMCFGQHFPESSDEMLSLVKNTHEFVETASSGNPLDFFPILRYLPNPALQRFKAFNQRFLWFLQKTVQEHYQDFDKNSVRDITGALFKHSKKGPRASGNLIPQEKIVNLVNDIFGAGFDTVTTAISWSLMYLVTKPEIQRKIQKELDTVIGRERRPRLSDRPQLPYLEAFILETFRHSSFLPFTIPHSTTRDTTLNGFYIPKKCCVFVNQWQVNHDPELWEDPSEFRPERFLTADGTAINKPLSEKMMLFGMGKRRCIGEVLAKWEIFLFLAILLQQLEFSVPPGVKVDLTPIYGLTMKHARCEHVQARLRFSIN
Method: as §1, §2

[5] = target: T5, CYP2A6 (Homo sapiens, UniProt P11509); experiment: CYP2A6 inhibition in pooled human liver microsomes (coumarin 7-hydroxylation); type: in vitro ADME; conditions: CEP 100 μM, pooled HLMs
T5 construct: from tissue; host or cells: pooled human liver microsomes
T5 sequence (P11509 1-494): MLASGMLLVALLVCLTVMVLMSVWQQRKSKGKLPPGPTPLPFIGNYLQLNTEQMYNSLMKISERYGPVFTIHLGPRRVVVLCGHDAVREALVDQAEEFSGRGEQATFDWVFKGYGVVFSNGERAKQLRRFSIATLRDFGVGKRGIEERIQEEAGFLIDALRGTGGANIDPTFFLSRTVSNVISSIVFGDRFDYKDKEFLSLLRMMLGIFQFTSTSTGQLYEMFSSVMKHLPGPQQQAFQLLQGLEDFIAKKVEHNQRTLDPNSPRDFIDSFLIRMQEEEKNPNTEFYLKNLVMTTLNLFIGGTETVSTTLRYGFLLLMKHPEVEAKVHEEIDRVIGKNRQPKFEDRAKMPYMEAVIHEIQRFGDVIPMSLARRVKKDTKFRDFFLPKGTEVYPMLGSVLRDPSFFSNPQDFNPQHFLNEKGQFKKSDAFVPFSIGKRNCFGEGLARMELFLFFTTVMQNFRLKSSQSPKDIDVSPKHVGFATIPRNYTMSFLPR
Method: as §1, §2

[6] = target: T6, CYP2D6 (Homo sapiens, UniProt P10635); experiment: CYP2D6 inhibition in pooled human liver microsomes (dextromethorphan O-demethylation); type: in vitro ADME; conditions: CEP 100 μM, pooled HLMs
T6 construct: from tissue; host or cells: pooled human liver microsomes
T6 sequence (P10635 whole entry): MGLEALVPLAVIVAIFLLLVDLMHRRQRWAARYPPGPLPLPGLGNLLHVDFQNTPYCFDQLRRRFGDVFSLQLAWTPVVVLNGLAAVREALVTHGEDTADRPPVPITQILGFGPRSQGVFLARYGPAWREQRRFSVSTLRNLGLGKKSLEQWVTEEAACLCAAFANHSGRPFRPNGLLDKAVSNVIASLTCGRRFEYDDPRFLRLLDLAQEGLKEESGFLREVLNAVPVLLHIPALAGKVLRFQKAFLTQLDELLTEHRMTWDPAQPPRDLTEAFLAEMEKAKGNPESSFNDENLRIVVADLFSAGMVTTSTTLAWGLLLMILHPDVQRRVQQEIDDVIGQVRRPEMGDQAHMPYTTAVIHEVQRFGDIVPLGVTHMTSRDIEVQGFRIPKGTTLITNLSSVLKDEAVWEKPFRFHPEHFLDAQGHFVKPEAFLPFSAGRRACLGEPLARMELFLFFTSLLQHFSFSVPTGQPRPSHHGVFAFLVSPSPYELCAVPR
Method: as §1, §2

[7] = target: T7, CYP2C19 (Homo sapiens, UniProt P33261); experiment: CYP2C19 inhibition in pooled human liver microsomes (S-mephenytoin 4-hydroxylation); type: in vitro ADME; conditions: CEP 100 μM, pooled HLMs
T7 construct: from tissue; host or cells: pooled human liver microsomes
T7 sequence (P33261 whole entry): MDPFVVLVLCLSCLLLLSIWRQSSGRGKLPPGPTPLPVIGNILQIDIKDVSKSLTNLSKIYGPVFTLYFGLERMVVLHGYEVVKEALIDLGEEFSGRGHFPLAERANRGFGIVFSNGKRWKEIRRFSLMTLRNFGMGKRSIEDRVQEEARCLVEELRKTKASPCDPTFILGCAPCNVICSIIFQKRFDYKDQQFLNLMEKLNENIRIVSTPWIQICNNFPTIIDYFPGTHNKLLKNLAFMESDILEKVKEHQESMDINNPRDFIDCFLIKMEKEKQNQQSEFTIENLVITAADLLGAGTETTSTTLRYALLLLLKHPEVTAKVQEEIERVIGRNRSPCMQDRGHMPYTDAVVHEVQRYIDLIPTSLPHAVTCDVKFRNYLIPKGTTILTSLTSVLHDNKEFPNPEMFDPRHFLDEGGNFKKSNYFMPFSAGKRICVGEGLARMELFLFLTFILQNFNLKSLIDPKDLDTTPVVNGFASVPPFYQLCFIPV
Method: as §1, §2

[8] = target: T8, CYP2C8 (Homo sapiens, UniProt P10632); experiment: CYP2C8 inhibition in pooled human liver microsomes (paclitaxel 6α-hydroxylation); type: in vitro ADME; conditions: CEP 100 μM, pooled HLMs
T8 construct: from tissue; host or cells: pooled human liver microsomes
T8 sequence (P10632 1-490): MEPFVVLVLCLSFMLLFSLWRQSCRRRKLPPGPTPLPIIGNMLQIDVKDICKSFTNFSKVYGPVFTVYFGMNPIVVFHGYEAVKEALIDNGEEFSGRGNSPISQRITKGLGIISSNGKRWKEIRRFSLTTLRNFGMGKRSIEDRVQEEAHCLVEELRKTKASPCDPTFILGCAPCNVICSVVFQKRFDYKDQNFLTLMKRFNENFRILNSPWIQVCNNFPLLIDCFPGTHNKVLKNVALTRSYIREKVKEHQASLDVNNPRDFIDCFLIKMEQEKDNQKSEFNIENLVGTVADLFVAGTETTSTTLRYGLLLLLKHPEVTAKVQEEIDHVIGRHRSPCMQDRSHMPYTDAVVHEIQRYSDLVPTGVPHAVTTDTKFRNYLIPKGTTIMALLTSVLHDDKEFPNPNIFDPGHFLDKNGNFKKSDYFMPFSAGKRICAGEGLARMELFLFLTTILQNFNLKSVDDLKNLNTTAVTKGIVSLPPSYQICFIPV
Method: as §1, §2

[9] = target: T1, CYP3A4; experiment: Time-dependent inhibition of CYP3A4 in human liver microsomes; type: in vitro ADME
Method: (§4) After incubation, an aliquot (20 μL) was transferred to another incubation tube (final volume 200 μL) containing an NADPH-generating system and probe substrates whose final concentrations were approximate to Km. Then, further incubations were performed to measure the residual activity. After being incubated for 0, 5, 10, 15, and 30 min, the reactions were terminated by adding a 100 μL acetonitrile internal standard mix and then placed on ice; the corresponding metabolites were determined by HPLC.

[10] = target: T2, CYP2E1; experiment: Time-dependent inhibition of CYP2E1 in human liver microsomes; type: in vitro ADME; conditions: CEP 20 μM, pre-incubation with HLM 30 min, incubation 0–30 min
Method: as §4

[11] = target: T3, CYP2C9; experiment: Time-dependent inhibition of CYP2C9 in human liver microsomes; type: in vitro ADME; conditions: CEP 20 μM, pre-incubation with HLM 30 min, incubation 0–30 min
Method: as §4

[12] = set-up: method as in Jiang et al. [2016]; conditions: rats, orally administered CEP 10 mg/kg; ref Jiang et al. [2016]; cited from earlier work

T1 sequence (P08684 whole entry): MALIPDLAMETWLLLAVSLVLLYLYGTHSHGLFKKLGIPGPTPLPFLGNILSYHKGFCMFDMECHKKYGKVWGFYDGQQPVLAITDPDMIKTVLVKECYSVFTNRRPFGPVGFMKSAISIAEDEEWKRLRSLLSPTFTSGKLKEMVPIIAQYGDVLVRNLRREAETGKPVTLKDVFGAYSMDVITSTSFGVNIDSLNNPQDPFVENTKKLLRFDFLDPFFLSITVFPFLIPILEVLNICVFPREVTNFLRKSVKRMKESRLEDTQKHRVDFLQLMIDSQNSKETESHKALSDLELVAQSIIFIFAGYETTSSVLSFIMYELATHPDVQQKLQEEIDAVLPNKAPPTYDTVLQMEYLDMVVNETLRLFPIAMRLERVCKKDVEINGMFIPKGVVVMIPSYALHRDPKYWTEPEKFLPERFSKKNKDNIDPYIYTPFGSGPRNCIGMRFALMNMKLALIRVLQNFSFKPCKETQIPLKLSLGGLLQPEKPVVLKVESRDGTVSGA

COc1ccc2cc1Oc1ccc(cc1)C[C@H]1c3c(cc4c(c3Oc3cc5c(cc3OC)CCN(C)[C@@H]5C2)OCO4)CCN1C [CEP, Cepharanthine]
activity at 100 μM ([1]; human, pooled human liver microsomes, pH 7.4, probe testosterone (6β-hydroxylation), read-out: CYP3A4 activity, % of control activity): 12.6% | Inhibition manner on CYP3A4 (Lineweaver–Burk plots) ([1]; pooled HLMs): non-competitive | Ki [2]: 11.8 µM | activity at 100 μM ([2]; human, pooled human liver microsomes, pH 7.4, probe chlorzoxazone (6-hydroxylation), read-out: CYP2E1 activity, % of control activity): 23.6% | Inhibition manner on CYP2E1 (Lineweaver–Burk plots) ([2]; pooled HLMs): competitive | IC50 ([2]; pooled HLMs, chlorzoxazone 6-hydroxylation): 25.6 µM | Ki [3]: 13.1 µM | activity at 100 μM ([3]; human, pooled human liver microsomes, pH 7.4, probe diclofenac (4′-hydroxylation), read-out: CYP2C9 activity, % of control activity): 18.1% | Inhibition manner on CYP2C9 (Lineweaver–Burk plots) ([3]; pooled HLMs): competitive | IC50 ([3]; pooled HLMs, diclofenac 4′-hydroxylation): 24.6 µM | Effect on CYP1A2 activity [4]: not affected | Effect on CYP2A6 activity [5]: not affected | Effect on CYP2D6 activity [6]: not affected | Effect on CYP2C19 activity [7]: not affected | Effect on CYP2C8 activity [8]: not affected | Time-dependent change of CYP3A4 activity ([9]; CEP 20 μM, pre-incubation with HLM 30 min, incubation 0–30 min): decreased with the incubation time | CYP3A4 inactivated each minute at a saturating concentration of CEP ([9]; HLM, from Kinact): about 5.8% | Time-dependent change of CYP2E1 activity [10]: not affected | Time-dependent change of CYP2C9 activity [11]: not affected | plasma Cmax [12]: approximately 0.05 μg/mL
